{
  "source": "paper PMC9783881",
  "about": "“Synthesis and Preclinical Evaluation of Small-Molecule Prostate-Specific Membrane Antigen-Targeted Abiraterone Conjugate” (Molecules, 2022)",
  "key": {"cytochrome P450 2C8": {"biological_target": "T1, cytochrome P450 2C8 (Homo sapiens, UniProt P10632)", "T1 construct": "isoenzyme activity in human liver microsomes using conventional sample substrates and HPLC-MS/MS detection; from tissue; host or cells: human liver microsomes", "T1 sequence (P10632 1-490)": "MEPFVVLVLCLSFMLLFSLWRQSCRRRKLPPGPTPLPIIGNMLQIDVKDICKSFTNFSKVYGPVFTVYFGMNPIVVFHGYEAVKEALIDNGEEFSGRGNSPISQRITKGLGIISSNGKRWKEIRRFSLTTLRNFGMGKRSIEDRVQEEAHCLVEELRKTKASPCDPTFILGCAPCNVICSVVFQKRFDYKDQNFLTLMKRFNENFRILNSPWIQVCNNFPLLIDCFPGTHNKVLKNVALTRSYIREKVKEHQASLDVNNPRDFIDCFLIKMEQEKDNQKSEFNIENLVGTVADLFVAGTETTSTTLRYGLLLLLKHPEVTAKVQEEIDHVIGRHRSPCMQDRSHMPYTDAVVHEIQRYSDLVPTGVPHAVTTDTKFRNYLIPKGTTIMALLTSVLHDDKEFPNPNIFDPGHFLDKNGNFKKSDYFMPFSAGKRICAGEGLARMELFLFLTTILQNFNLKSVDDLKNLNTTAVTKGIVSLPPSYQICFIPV", "test": "Cytochrome inhibition in human liver microsomes, 2C8", "assay_type": "in vitro ADME", "details": "substrate Paclitaxel, read-out: IC50, 2C8 (PSMA-Abi)", "description": "(§1) To assess the effect of drugs on liver cytochrome activity in drug development, test systems with recombinant enzymes and fluorescent substrates as well as microsomes with metabolic substrates and HPLC-MS/MS analysis were used. The present study aimed to investigate the effect of targeted delivery drugs specific to malignant prostate cells on cytochrome P450 (CYP450) isoenzyme activity in human liver microsomes using conventional sample substrates and HPLC-MS/MS detection. Detailed methodological parameters are described in the Supplementary Material."}, "PC-3": {"system": "PC-3", "test": "Single cell ROS measurement with Pt-nanoelectrodes, PC-3", "assay_type": "cell-based, human", "details": "PC-3, 1 h incubation, IC50 concentration", "description": "Commercially available, disk-shaped carbon nanoelectrodes isolated in quartz (ICAPPIC Limited, London, UK) with diameters of 60–100 nm were used to prepare Pt nanoelectrodes for the amperometric detection of intracellular ROS level. Preparation of Pt-nanoelectrodes has been described in detail previously.\nBriefly, a disk-shaped carbon nanoelectrode was etched in a 0.1 M NaOH, 10 mM KCl solution for 20–40 cycles of 10 seconds (from 0 to +2200 mV) to create nanocavities. Electrochemical deposition of platinum in nanocavities was achieved by cycling from 0 to −800 mV with a scan rate of 200 mV s^−1 for 8 to 10 cycles in 2 mM H2PtCl6 solution in 0.1 M hydrochloric acid. […]\nThe setup for amperometric measurements included a PC that was connected to a system consisting of an ADC–DAC converter Axon Digidata 1550B (Axon Instruments, Burlingame, CA, USA) and patch-clamp amplifier MultiClamp 700B (Axon Instruments, USA). […] The potential difference between the Pt-nanoelectrode and the reference electrode was recorded with the pClamp 11 software suite (Molecular Devices, Silicon Valley, CA, USA) and processed with Origin 2018 software.\nPC-3 (2.0 × 10^5)/22Rv1 (3.5 × 10^5) cells were seeded in 35 mm Petri dishes, incubated under the conditions described above, and then treated for 24 h. […] Untreated cells were used as a control, which was evaluated at the beginning and at the end of the experiment. […]"}, "cytochrome P450 1A2": {"biological_target": "T2, cytochrome P450 1A2 (Homo sapiens, UniProt P05177)", "T2 construct": "isoenzyme activity in human liver microsomes using conventional sample substrates and HPLC-MS/MS detection; from tissue; host or cells: human liver microsomes", "T2 sequence (P05177 1-516)": "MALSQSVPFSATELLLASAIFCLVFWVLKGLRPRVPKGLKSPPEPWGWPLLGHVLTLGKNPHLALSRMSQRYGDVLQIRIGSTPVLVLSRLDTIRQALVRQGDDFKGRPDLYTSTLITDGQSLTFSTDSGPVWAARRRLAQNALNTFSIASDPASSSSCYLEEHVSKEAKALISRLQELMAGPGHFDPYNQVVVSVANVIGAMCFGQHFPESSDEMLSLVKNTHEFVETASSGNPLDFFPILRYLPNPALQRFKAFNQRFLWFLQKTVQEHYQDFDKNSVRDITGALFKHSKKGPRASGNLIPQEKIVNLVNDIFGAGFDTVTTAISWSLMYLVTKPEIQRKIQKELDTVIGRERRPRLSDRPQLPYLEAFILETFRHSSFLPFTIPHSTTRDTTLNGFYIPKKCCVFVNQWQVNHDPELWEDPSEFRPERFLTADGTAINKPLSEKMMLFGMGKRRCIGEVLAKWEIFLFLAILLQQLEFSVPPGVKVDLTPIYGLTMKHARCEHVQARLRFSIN", "test": "Cytochrome inhibition in human liver microsomes, 1A2", "assay_type": "in vitro ADME", "details": "substrate Phenacetin, read-out: IC50, 1A2 (PSMA-Abi)", "description": "as §1"}, "cytochrome P450 2C9": {"biological_target": "T3, cytochrome P450 2C9 (Homo sapiens, UniProt P11712)", "T3 construct": "isoenzyme activity in human liver microsomes using conventional sample substrates and HPLC-MS/MS detection; from tissue; host or cells: human liver microsomes", "T3 sequence (P11712 whole entry)": "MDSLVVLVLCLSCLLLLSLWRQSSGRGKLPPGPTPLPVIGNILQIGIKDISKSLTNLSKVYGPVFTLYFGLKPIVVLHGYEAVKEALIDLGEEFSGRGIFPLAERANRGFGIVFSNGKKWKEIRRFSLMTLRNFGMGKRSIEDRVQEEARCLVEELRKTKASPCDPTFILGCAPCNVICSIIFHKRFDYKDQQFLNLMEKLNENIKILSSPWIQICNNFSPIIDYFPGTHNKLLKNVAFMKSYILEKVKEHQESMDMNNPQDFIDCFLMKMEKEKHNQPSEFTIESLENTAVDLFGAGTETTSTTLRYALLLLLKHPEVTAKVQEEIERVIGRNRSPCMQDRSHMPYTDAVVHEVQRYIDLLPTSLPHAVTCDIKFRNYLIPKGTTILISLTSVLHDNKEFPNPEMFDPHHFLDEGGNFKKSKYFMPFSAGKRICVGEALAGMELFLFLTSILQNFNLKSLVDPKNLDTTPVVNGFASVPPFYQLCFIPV", "test": "Cytochrome inhibition in human liver microsomes, 2C9", "assay_type": "in vitro ADME", "details": "substrate Tolbutamide, read-out: IC50, 2C9 (PSMA-Abi)", "description": "as §1"}, "[1]": {"test": "Water solubility (comparison in words)", "assay_type": "physicochemical", "details": "compared to AbiAc"}},
  "data": [
    {"smiles": "C[C@]12CC[C@H](OC(=O)CCCc3cn(CCCNC(=O)[C@H](Cc4ccc(O)cc4)NC(=O)[C@H](Cc4ccccc4)NC(=O)CCC(=O)NCCCCCC(=O)N(CCCC[C@H](NC(=O)N[C@@H](CCC(=O)O)C(=O)O)C(=O)O)Cc4cccc(Cl)c4)nn3)CC1=CC[C@@H]1[C@@H]2CC[C@]2(C)C(c3cccnc3)=CC[C@@H]12", "note": "[PSMA-Abi]", "values": [
      {"measurement": "IC50", "setting": "cytochrome P450 2C8", "value": "4.4 ± 1.1", "unit": "µM"},
      {"measurement": "ROS (hydrogen peroxide) level in single cells", "setting": "PC-3", "value": "remained at the level of the AbiAc sample"},
      {"measurement": "IC50", "setting": "cytochrome P450 1A2", "value": "4.5 ± 1.1", "unit": "µM"},
      {"measurement": "IC50", "setting": "cytochrome P450 2C9", "value": "> 25", "unit": "µM"},
      {"measurement": "water solubility", "setting": "[1]", "value": "better water solubility compared to the AbiAc"}
    ]}
  ]
}
